Test results taken from patent US9290451B2 (Hoffmann-La Roche Inc., priority 2011, dated 2016).

How the values were obtained:
human CB1 receptors = human CB1 receptors (Homo sapiens (Human), UniProt P21554); assay: cAMP assay, CHO cells expressing human CB1 receptors; format: cell-based; conditions: CHO cells expressing human CB1, cAMP; read-out: human CB1 EC50
Method in brief: (§1)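 Agonist EC50 values come from cAMP levels measured in intact CHO cells. Compounds act for 30 min at 30 °C in the presence of 1 mM IBMX, and cAMP is then detected by time-resolved energy transfer after lysis.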

human CB2 receptors = human CB2 receptors (Homo sapiens (Human), UniProt P34972); assay: cAMP assay, CHO cells expressing human CB2 receptors; format: cell-based; conditions: CHO cells expressing human CB2, cAMP; read-out: human CB2 EC50
Method in brief: as §1

Chain of human CB1 receptors (P21554 whole entry): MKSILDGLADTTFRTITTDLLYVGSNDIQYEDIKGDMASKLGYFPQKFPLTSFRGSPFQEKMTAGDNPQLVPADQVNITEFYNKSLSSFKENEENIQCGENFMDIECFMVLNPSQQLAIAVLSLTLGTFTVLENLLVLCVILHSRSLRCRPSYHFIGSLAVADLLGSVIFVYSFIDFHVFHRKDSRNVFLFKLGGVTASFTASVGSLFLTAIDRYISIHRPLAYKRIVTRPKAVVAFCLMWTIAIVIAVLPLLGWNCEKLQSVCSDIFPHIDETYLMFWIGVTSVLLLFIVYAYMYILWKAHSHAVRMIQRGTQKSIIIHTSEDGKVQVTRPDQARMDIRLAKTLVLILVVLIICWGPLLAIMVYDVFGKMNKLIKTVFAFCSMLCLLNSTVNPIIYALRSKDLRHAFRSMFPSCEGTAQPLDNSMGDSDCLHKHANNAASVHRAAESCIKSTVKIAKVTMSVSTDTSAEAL
Chain of human CB2 receptors (P34972 whole entry): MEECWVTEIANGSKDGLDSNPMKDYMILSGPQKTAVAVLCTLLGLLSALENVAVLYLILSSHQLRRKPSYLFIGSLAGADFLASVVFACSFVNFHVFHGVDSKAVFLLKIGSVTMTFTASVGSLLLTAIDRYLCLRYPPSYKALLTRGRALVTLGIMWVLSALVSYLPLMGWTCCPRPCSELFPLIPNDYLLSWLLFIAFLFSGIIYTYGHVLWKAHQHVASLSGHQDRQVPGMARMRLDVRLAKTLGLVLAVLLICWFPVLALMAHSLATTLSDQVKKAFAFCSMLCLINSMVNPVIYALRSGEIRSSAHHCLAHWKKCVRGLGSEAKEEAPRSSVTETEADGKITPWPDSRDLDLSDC

Q: What does the source list for `Cc1nc([C@H](CC2CC2)NC(=O)c2ccc(N3CC(F)(F)C3)c(-c3cccc(Cl)c3)n2)no1` [Example 164, 6-(3-Chloro-phenyl)-5-(3,3-difluoro-azetidin-1-yl)-pyridine-2-carboxylic acid [(S)-2-cyclopropyl-1-(5-methyl-[1,2,4]oxadiazol-3-yl)-ethyl]-amide]?
A: EC50 (human CB1 receptors): > 10000 nM; EC50 (human CB2 receptors): 249 nM

Q: What does the source list for `CCC(CC)(NC(=O)c1ccc(N(CC(F)(F)F)CC(F)(F)F)c(OCC2CC2)n1)C(=O)NC` [Example 165, 5-[Bis-(2,2,2-trifluoro-ethyl)-amino]-6-cyclopropylmethoxy-pyridine-2-carboxylic acid (1-ethyl-1-methylcarbamoyl-propyl)-amide]?
A: EC50 (human CB1 receptors): 1200 nM; EC50 (human CB2 receptors): 7.2 nM

Q: What does the source list for `Cc1nc(C(C)(C)NC(=O)c2ccc(C3CC3)c(OCC3CCCO3)n2)no1` (stereo not drawn) [Example 166, 5-Cyclopropyl-6-(tetrahydro-furan-2-ylmethoxy)-pyridine-2-carboxylic acid [1-methyl-1-(5-methyl-[1,2,4]oxadiazol-3-yl)-ethyl]-amide]?
A: EC50 (human CB1 receptors): > 10000 nM; EC50 (human CB2 receptors): 30.5 nM

Q: Which results are given for `CC(C)(C#N)NC(=O)c1ccc(C2CC2)c(OCC2CC2)n1` [Example 167, N-(2-Cyanopropan-2-yl)-5-cyclopropyl-6-(cyclopropylmethoxy)picolinamide]?
A: EC50 (human CB1 receptors): > 10000 nM; EC50 (human CB2 receptors): 206 nM

Q: What does the source list for `CNC(=O)[C@@H](NC(=O)c1ccc(C2CC2)c(OCC2CC2)n1)C(C)(C)C` [Example 168, (S)-5-Cyclopropyl-6-(cyclopropylmethoxy)-N-(3,3-dimethyl-1-(methylamino)-1-oxobutan-2-yl)picolinamide]?
A: EC50 (human CB1 receptors): 313 nM; EC50 (human CB2 receptors): 0.6 nM

Q: Which results are given for `CC(C)C(C)(NC(=O)c1ccc(C2CC2)c(OCC2CC2)n1)C(N)=O` (stereo not drawn) [Example 169, N-(1-Amino-2,3-dimethyl-1-oxobutan-2-yl)-5-cyclopropyl-6-(cyclopropylmethoxy)picolinamide]?
A: EC50 (human CB1 receptors): > 10000 nM; EC50 (human CB2 receptors): 182 nM

Q: How did the EC50 (human CB1 receptors) turn out when `CCC(C)(NC(=O)c1ccc(C2CC2)c(OCC2CC2)n1)C(N)=O` (stereo not drawn) [Example 170, N-(1-Amino-2-methyl-1-oxobutan-2-yl)-5-cyclopropyl-6-(cyclopropylmethoxy)picolinamide] was run?
A: > 10000 nM

Q: What about the EC50 (human CB2 receptors) of the same compound?
A: 194 nM

Q: What does the source list for `Cc1nc(C2(NC(=O)c3ccc(C4CC4)c(OCC4CC4)n3)CCC2)no1` [Example 171, 5-Cyclopropyl-6-(cyclopropylmethoxy)-N-(1-(5-methyl-1,2,4-oxadiazol-3-yl)cyclobutyl)picolinamide]?
A: EC50 (human CB1 receptors): > 10000 nM; EC50 (human CB2 receptors): 46.8 nM

Q: Which EC50 (human CB1 receptors) does the source give for `NC(=O)[C@@H](NC(=O)c1ccc(C2CC2)c(OCC2CC2)n1)c1ccccc1` [Example 172, (S)-N-(2-Amino-2-oxo-1-phenylethyl)-5-cyclopropyl-6-(cyclopropylmethoxy)picolinamide] here?
A: > 10000 nM

Q: What about the EC50 (human CB2 receptors) of the same compound?
A: 10.1 nM

Q: `NC(=O)[C@H](NC(=O)c1ccc(C2CC2)c(OCC2CC2)n1)c1ccccc1` [Example 173, (R)-N-(2-Amino-2-oxo-1-phenylethyl)-5-cyclopropyl-6-(cyclopropylmethoxy)picolinamide] was tested. Which EC50 (human CB1 receptors) did it give?
A: > 10000 nM

Q: What about the EC50 (human CB2 receptors) of the same compound?
A: 23.1 nM

Q: For `CC(C)C[C@H](CO)NC(=O)c1ccc(C2CC2)c(OCC2CC2)n1` [Example 174, (R)-5-Cyclopropyl-6-(cyclopropylmethoxy)-N-(1-hydroxy-4-methylpentan-2-yl)picolinamide], which EC50 (human CB1 receptors) is on record?
A: > 10000 nM

Q: And the EC50 (human CB2 receptors)?
A: 32 nM

Q: With `O=C(NC1(CO)CCCC1)c1ccc(C2CC2)c(OCC2CC2)n1` [Example 175, 5-Cyclopropyl-6-(cyclopropylmethoxy)-N-(1-(hydroxymethyl)cyclopentyl)picolinamide] as the compound, how does the EC50 (human CB1 receptors) read?
A: > 10000 nM

Q: And the EC50 (human CB2 receptors)?
A: 47.8 nM

Q: How did the EC50 (human CB1 receptors) turn out when `Cc1noc(C(C)(C)NC(=O)c2ccc(C3CC3)c(OCC3CC3)n2)n1` [Example 176, 5-Cyclopropyl-6-(cyclopropylmethoxy)-N-(2-(3-methyl-1,2,4-oxadiazol-5-yl)propan-2-yl)picolinamideinamide] was run?
A: > 10000 nM

Q: And the EC50 (human CB2 receptors)?
A: 114 nM

Q: With `CC(C)C[C@H](NC(=O)c1ccc(Br)c(Oc2ccc(F)cc2)n1)C(N)=O` [Example 177, 5-Bromo-6-(4-fluoro-phenoxy)-pyridine-2-carboxylic acid ((S)-1-carbamoyl-3-methyl-butyl)-amide] as the compound, how does the EC50 (human CB1 receptors) read?
A: > 10000 nM

Q: And the EC50 (human CB2 receptors)?
A: 196 nM

Q: What does the source list for `CC(C)CC(C)(NC(=O)c1ccc(C2CC2)c(OCC2CC2)n1)C(N)=O` (stereo not drawn) [Example 178, N-(1-Amino-2,4-dimethyl-1-oxopentan-2-yl)-5-cyclopropyl-6-(cyclopropylmethoxy)picolinamide]?
A: EC50 (human CB1 receptors): > 10000 nM; EC50 (human CB2 receptors): 42.2 nM

Q: Which results are given for `CC(C)(C)C(NC(=O)c1ccc(C2CC2)c(OCC2CC2)n1)C(N)=O` (stereo not drawn) [Example 179, N-(1-Amino-3,3-dimethyl-1-oxobutan-2-yl)-5-cyclopropyl-6-(cyclopropylmethoxy)picolinamide]?
A: EC50 (human CB1 receptors): 514 nM; EC50 (human CB2 receptors): 3.8 nM

Q: With `NC(=O)C1(NC(=O)c2ccc(C3CC3)c(OCC3CC3)n2)CCOCC1` [Example 180, 5-Cyclopropyl-6-cyclopropylmethoxy-pyridine-2-carboxylic acid (4-carbamoyl-tetrahydro-pyran-4-yl)-amide] as the compound, how does the EC50 (human CB1 receptors) read?
A: > 10000 nM

Q: And the EC50 (human CB2 receptors)?
A: 423 nM

Q: `CNC(=O)[C@H](CC(C)C)NC(=O)c1ccc(C2CC2)c(OCC2CC2)n1` [Example 181, (S)-5-cyclopropyl-6-(cyclopropylmethoxy)-N-(4-methyl-1-(methylamino)-1-oxopentan-2-yl)picolinamide] was tested. Which EC50 (human CB1 receptors) did it give?
A: 231 nM

Q: What about the EC50 (human CB2 receptors) of the same compound?
A: 1.3 nM

Q: `CNC(=O)[C@H](CC(C)(C)C)NC(=O)c1ccc(C2CC2)c(OCC2CC2)n1` [Example 182, (S)-5-Cyclopropyl-6-(cyclopropylmethoxy)-N-(4,4-dimethyl-1-(methylamino)-1-oxopentan-2-yl)picolinamide] was tested. Which EC50 (human CB1 receptors) did it give?
A: > 10000 nM

Q: And the EC50 (human CB2 receptors)?
A: 1.7 nM

Q: What does the source list for `CNC(=O)[C@@H](NC(=O)c1ccc(C2CC2)c(OCC2CCCO2)n1)C(C)(C)C` (stereo partly drawn) [Example 183, 5-Cyclopropyl-N-((S)-3,3-dimethyl-1-(methylamino)-1-oxobutan-2-yl)-6-((tetrahydrofuran-2-yl)methoxy)picolinamide]?
A: EC50 (human CB1 receptors): 102 nM; EC50 (human CB2 receptors): 4 nM

Q: Which results are given for `CNC(=O)[C@H](CC(C)C)NC(=O)c1ccc(C2CC2)c(OCC2CCCO2)n1` (stereo partly drawn) [Example 184, 5-Cyclopropyl-N-((S)-4-methyl-1-(methylamino)-1-oxopentan-2-yl)-6-((tetrahydrofuran-2-yl)methoxy)picolinamide]?
A: EC50 (human CB1 receptors): > 10000 nM; EC50 (human CB2 receptors): 3.9 nM

Q: With `CNC(=O)[C@H](CC(C)(C)C)NC(=O)c1ccc(C2CC2)c(OCC2CCCO2)n1` (stereo partly drawn) [Example 185, 5-Cyclopropyl-N-((S)-4,4-dimethyl-1-(methylamino)-1-oxopentan-2-yl)-6-((tetrahydrofuran-2-yl)methoxy)picolinamide] as the compound, how does the EC50 (human CB1 receptors) read?
A: > 10000 nM

Q: And the EC50 (human CB2 receptors)?
A: 7.5 nM

Q: What does the source list for `CC(C)C[C@H](NC(=O)c1ccc(C2CC2)c(OCC2CCCO2)n1)C(N)=O` (stereo partly drawn) [Example 186, N-((S)-1-Amino-4-methyl-1-oxopentan-2-yl)-5-cyclopropyl-6-((tetrahydrofuran-2-yl)methoxy)picolinamide]?
A: EC50 (human CB1 receptors): 1490 nM; EC50 (human CB2 receptors): 1.1 nM

Q: How did the EC50 (human CB1 receptors) turn out when `CC(C)C[C@H](NC(=O)c1ccc(C2CC2)c(Oc2ccc(F)cc2)n1)C(N)=O` [Example 187, 5-Cyclopropyl-6-(4-fluoro-phenoxy)-pyridine-2-carboxylic acid ((S)-1-carbamoyl-3-methyl-butyl)-amide] was run?
A: > 10000 nM

Q: What about the EC50 (human CB2 receptors) of the same compound?
A: 52.2 nM

Q: `CNC(=O)[C@@H](NC(=O)c1ccc(Br)c(OCC2CCCO2)n1)C(C)(C)C` (stereo partly drawn) [Example 188, 5-Bromo-6-(tetrahydro-furan-2-ylmethoxy)-pyridine-2-carboxylic acid ((S)-2,2-dimethyl-1-methylcarbamoyl-propyl)-amide] was tested. Which EC50 (human CB1 receptors) did it give?
A: 375 nM

Q: What about the EC50 (human CB2 receptors) of the same compound?
A: 5 nM

Q: Which EC50 (human CB1 receptors) does the source give for `Cc1nc(C2(NC(=O)c3ccc(C4CC4)c(OCc4ccccn4)n3)CCC2)no1` [Example 189, 5-Cyclopropyl-N-(1-(5-methyl-1,2,4-oxadiazol-3-yl)cyclobutyl)-6-(pyridin-2-ylmethoxy)picolinamide] here?
A: > 10000 nM

Q: What about the EC50 (human CB2 receptors) of the same compound?
A: 381 nM

Q: With `Cc1nc(C(NC(=O)c2ccc(C3CC3)c(OCC3CC3)n2)C2CC2)no1` (stereo not drawn) [Example 190, 5-Cyclopropyl-N-(cyclopropyl(5-methyl-1,2,4-oxadiazol-3-yl)methyl)-6-(cyclopropylmethoxy)picolinamide] as the compound, how does the EC50 (human CB1 receptors) read?
A: > 10000 nM

Q: And the EC50 (human CB2 receptors)?
A: 20.4 nM

Q: What does the source list for `CC(C)[C@](C)(CO)NC(=O)c1ccc(C2CC2)c(OCC2CC2)n1` [Example 191, 5-Cyclopropyl-6-cyclopropylmethoxy-pyridine-2-carboxylic acid ((R)-1-hydroxymethyl-1,2-dimethyl-propyl)-amide]?
A: EC50 (human CB1 receptors): > 10000 nM; EC50 (human CB2 receptors): 57.7 nM

Q: Which EC50 (human CB1 receptors) does the source give for `CNC(=O)[C@@H](NC(=O)c1cccc(-c2cccc(Cl)c2)n1)C(C)(C)C` [Example 192, (S)-6-(3-Chlorophenyl)-N-(3,3-dimethyl-1-(methylamino)-1-oxobutan-2-yl)picolinamide] here?
A: 1540 nM

Q: And the EC50 (human CB2 receptors)?
A: 64.2 nM

Q: `CNC(=O)[C@H](CC(C)(C)C)NC(=O)c1cccc(-c2cccc(Cl)c2)n1` [Example 193, (S)-6-(3-Chlorophenyl)-N-(4,4-dimethyl-1-(methylamino)-1-oxopentan-2-yl)picolinamide] was tested. Which EC50 (human CB1 receptors) did it give?
A: > 10000 nM

Q: What about the EC50 (human CB2 receptors) of the same compound?
A: 99.4 nM

Q: What does the source list for `CC(C)(CCO)NC(=O)c1ccc(C2CC2)c(OCC2CC2)n1` [Example 194, 5-Cyclopropyl-6-(cyclopropylmethoxy)-N-(4-hydroxy-2-methylbutan-2-yl)picolinamide]?
A: EC50 (human CB1 receptors): > 10000 nM; EC50 (human CB2 receptors): 99.1 nM

Q: How did the EC50 (human CB1 receptors) turn out when `CNC(=O)[C@@H](NC(=O)c1ccc(C2CC2)c(OCC2CCOCC2)n1)C(C)(C)C` [Example 195, (S)-5-Cyclopropyl-N-(3,3-dimethyl-1-(methylamino)-1-oxobutan-2-yl)-6-((tetrahydro-2H-pyran-4-yl)methoxy)picolinamide] was run?
A: 206 nM

Q: And the EC50 (human CB2 receptors)?
A: 1.4 nM

Q: Which results are given for `CNC(=O)[C@H](CC(C)(C)C)NC(=O)c1ccc(C2CC2)c(OCC2CCOCC2)n1` [Example 196, (S)-5-Cyclopropyl-N-(4,4-dimethyl-1-(methylamino)-1-oxopentan-2-yl)-6-((tetrahydro-2H-pyran-4-yl)methoxy)picolinamide]?
A: EC50 (human CB1 receptors): > 10000 nM; EC50 (human CB2 receptors): 10.3 nM
